Measured values: patent US20140308298A1, “Diagnostic and Treatment of an Androgen-Independent Prostate Cancer” (UNIVERSITE D'AIX MARSEILLE, priority 2011, published 2014)

Tests used:
Du145 cells [1] = test: Western blot of phosphorylated cRaf, MEK1/2, ERK and Akt in Du145 cells; assay type: cell-based, human
Procedure: (§1) FIG. 2: Adrenomedullin stimulates Du145 cell proliferation and invasion in vitro. A, AM induced cAMP formation in cultured Du145 cells. Cells (3×10^4 cells/ml) were treated with AM (10^−9 M-10^−7 M) for different times. Each value is the mean±SEM of three independent experiments performed in quadruplate (*, p<0.05; **, p<0.01; ***, p<0.001). B, oppose effects of AM and αAM on the growth of Du145 cells in vitro. For proliferation assays, Du145 cells were seeded at the density of 1×10^4 per well in 6 multiwell plates in presence of RPMI 1640 medium supplemented with 5% FBS. AM at 10^−7 M and αAM (70 μg/ml) were added. As control, rabbit control IgG (70 μg/ml) of irrelevant specificity was used. For each treatment, three wells were prepared, exposed to trypsin and cells were counted in Coulter Counter. Each bar represents the mean±SEM of four independent experiments (**, p<0.01; ***, p<0.001). C, AM stimulates Du145 cells invasion in vitro. Du145 cells (1.5×10^4 cells) were added into Biocoat Matrigel invasion upper chamber and 10^−7 M of AM were added into the lower chamber, and after 6 h, noninvaded cells in the upper membrane were removed and cells invading into the lower membrane were quantified by fluorescence by adding DAPI reagent at least 45 min before taking the reading. RPMI 1640 containing 2% FBS was used as control. bFGF was used as positive control. Data are expressed as the number of migrated cells in 10 high-power fields and are the means of results from three independent experiments. Each bar represents the mean±SEM (**, p<0.01; ***, p<0.001). D, intracellular signalling pathway induced by AM in Du145 cells. Western blot analysis of phosphorylated cRAF (pcRAF), pMEK1/2, pERK (44 and 42 kDa) and ERK in Du145 cells, stimulated with AM (5×10^−7 M) for 2, 5, 10, 20, and 30 min. AM (5×10^−7 M)-induced phosphorylation of ERK was inhibited by mitogen-activated protein kinase kinase inhibitor, U0126 (10 μM, 30 min). EGF was used as positive control known to stimulate phosphorylation of cRAF, MEK, and ERK. To assess the amount of proteins loaded for each sample, immunoblot analysis was performed with anti-α-actin.
Western blotting analysis: Cell extracts were prepared and processed for CLR, RAMP2 and RAMP3 western blot analysis as described (29). Immunoblotting of phospho-c-Raf, phospho-MEK1/2, phospho-ERK1/2, and ERK1/2 was performed using MAPK-phospho-ERK1/2 pathway samples kit (Cell Signaling Technologie, Inc.).

Du145 cells [2] = test: Cell proliferation assay, Du145 cells; assay type: cell-based, human; conditions: AM 10^-7 M
Procedure: as §1, with “C, AM stimulates Du145 cells invasion in vitro.” left out, “RPMI 1640 containing 2% FBS was used as control. bFGF was used as positive control.” left out, “Each bar represents the mean±SEM (**, p<0.01; ***, p<0.001). D, intracellular signalling pathway induced by AM in Du145 cells. Western blot analysis of phosphorylated cRAF (pcRAF), pMEK1/2, pERK (44 and 42 kDa) and ERK in Du145 cells, stimulated with AM (5×10^−7 M) for 2, 5, 10, 20, and 30 min. AM (5×10^−7 M)-induced phosphorylation of ERK was inhibited by mitogen-activated protein kinase kinase inhibitor, U0126 (10 μM, 30 min). EGF was used as positive control known to stimulate phosphorylation of cRAF, MEK, and ERK. To assess the amount of proteins loaded for each sample, immunoblot analysis was performed with anti-α-actin.” left out

LNCaP cells [3] = test: Cell proliferation assay, LNCaP cells; assay type: cell-based, human; conditions: AM 2×10^-7 M; 5% FBS
Procedure: (§2) FIG. 10: Effect of AM and αAM on LNCaP cells in vitro. A, total RNA (1 μg) DNA-free from LNCaP cell line was reverse transcribed into cDNA and subjected to real-time quantitative reverse transcription (RT)-PCR for the estimation of relative CLR, RAMP2 and RAMP3 mRNAs to 18S rRNA ratio. B, effects of AM and αAM on LNCaP cells growth in vitro. For proliferation assay, LNCaP cells were seeded and treated in the presence of 5% FBS as described for PC3 cells in FIG. 9. C, no effects of AM on LNCaP cells invasion in vitro. For invasion assays, LNCaP cells (5×10^4 cells) were seeded on a Matrigel layer in a boyden chamber assay and analyzed as described for PC3 cells in FIG. 9.
Cell proliferation assay: The effects of AM, αAM and control IgG on cell proliferation was examined at the indicated time points as described (19).

Du145 cells [4] = test: Matrigel invasion assay (modified Boyden chamber), Du145 cells; assay type: cell-based, human
Procedure: as §1, with “C, AM stimulates Du145 cells invasion in vitro.” left out, “RPMI 1640 containing 2% FBS was used as control. bFGF was used as positive control.” left out, “Each bar represents the mean±SEM (**, p<0.01; ***, p<0.001). D, intracellular signalling pathway induced by AM in Du145 cells. Western blot analysis of phosphorylated cRAF (pcRAF), pMEK1/2, pERK (44 and 42 kDa) and ERK in Du145 cells, stimulated with AM (5×10^−7 M) for 2, 5, 10, 20, and 30 min. AM (5×10^−7 M)-induced phosphorylation of ERK was inhibited by mitogen-activated protein kinase kinase inhibitor, U0126 (10 μM, 30 min). EGF was used as positive control known to stimulate phosphorylation of cRAF, MEK, and ERK. To assess the amount of proteins loaded for each sample, immunoblot analysis was performed with anti-α-actin.” left out

PC-3 cells [5] = test: Cell proliferation assay, PC3 cells; assay type: cell-based, human; conditions: AM 10^-7 M or αAM 70 μg/ml; 2% FBS
Procedure: (§3) FIG. 9: Effect of AM on PC3 cells in vitro. A, expression of AMR mRNAs in PC3 cells. Total RNA (1 μg) DNA-free from PC3 cell line was reverse transcribed into cDNA and subjected to real-time quantitative reverse transcription (RT)-PCR for the estimation of relative CLR, RAMP2 and RAMP3 mRNAs to 18S rRNA ratio. B, effects of AM and αAM on the growth of PC3 cells in vitro. For proliferation assays, PC3 cells were seeded at the density of 2×10^4 per well in 24 multiwell plates in the presence of RPMI 1640 medium supplemented with 2% FBS. AM at 10^−7M or αAM (70 μg/ml) were added. As control, rabbit control IgG (70 μg/ml) of irrelevant specificity was used. For each treatment, six wells were prepared, exposed to trypsin and cells were counted in Coulter Counter. Each bar represents the mean±SEM of four independent experiments. […] PC3 cells (3×10^4 cells) were added into Biocoat Matrigel invasion upper chamber and 10^−7 M of AM were added into the lower chamber, and after 6 h, non-invaded cells in the upper membrane were removed and cells invading into the lower membrane were quantified by fluorescence by adding DAPI reagent 45 min before taking the reading. Data are expressed as the number of migrated cells in 10 high-power fields and are the means of results from three independent experiments each performed in triplicate. bFGF was used as positive control. […]

PC-3 cells [6] = test: Matrigel invasion assay (modified Boyden chamber), PC3 cells; assay type: cell-based, human; conditions: AM 10^-7 M, 6 h
Procedure: as §3

Du145 cells [7] = test: Cyclic AMP assay in Du145 cells; assay type: cell-based, human
Procedure: as §1, with “To assess the amount of proteins loaded for each sample, immunoblot analysis was performed with anti-α-actin.” left out

human LEC = test: Proliferation, migration and invasion of human LECs in vitro; assay type: cell-based; conditions: AM 10^-7 M; proliferation 6 days, migration 20 h, invasion 48 h
Procedure: Neonatal Human Dermal Lymphatic Microvascular Endothelial Cells (HMVEC-dLyNeo) were purchased from Lonza (Lonza, Basel, Switzerland), and expanded in microvascular endothelial cell growth medium-2 (EGM-2MV, Lonza) with growth supplements (EGM-2MV, Lonza). A, total RNA (1 μg) DNA-free from LECs was reverse transcribed into cDNA and subjected to real-time quantitative reverse transcription (RT)-PCR for the estimation of relative AM, CLR, RAMP2 and RAMP3 mRNAs to 18S rRNA ratio. B, oppose effect of AM and αAM on the growth of LECs in vitro. For proliferation assay, LECs were seeded at the density of 3.5×10^4 per well in 6 multiwell plates in the presence of EBM-2 medium supplemented with 0.5% FBS. AM (10^−7 M) and αAM (70 μg/ml) were added for 6 days treatment. After treatment, cells were exposed to trypsin and were prepared for cell number counting in a coulter counter. […] Cells migrating through the filter were counted after 20 h (C) and those migrating in presence of Matrigel were counted after 48 h (D). Data are expressed as the number of migrated cells in 10-high-power fields, and the values represent the mean±SEM of three independent experiments each performed in triplicate (*p<0.05; **p<0.01; ***p<0.001).
Cell migration and invasion assays: The migration and chemoinvasion were assessed using a modified Boyden chamber assay (7). […]

[8] = test system: lymphatic endothelial cells; test: LEC death after serum deprivation; assay type: cell-based, human; conditions: AM 10^-7 M
Procedure: FIG. 12. AM is a growth factor survival for lymphatic endothelial cells. Time course of LEC death after DMEM serum deprivation in the absence and presence of AM (10^−7M). Exponentially growing cells were changed into serum-free medium, and all floating cells after 12, 24 and 48 h were counted with a coulter counter. Each point and bar represents mean±SEM (n=6); values were normalized to the total number of floating dead cells 48 h after serum deprivation in the absence of AM, which was set at 100%. **, p<0.01.

LNCaP cells [9] = test: Matrigel invasion assay (modified Boyden chamber), LNCaP cells; assay type: cell-based, human
Procedure: as §2
Cell migration and invasion assays: The migration and chemoinvasion were assessed using a modified Boyden chamber assay (7). Du145 (15×10^−3), LNCaP (50×10^−3), and PC3 (30×10^−3) cells were added to the upper compartment during 6 h. For LECs, (30×10^−3) cells were added during 48 h for invasion and 20 h for migration.

## N#CC(=C(/N)Sc1ccccc1N)/C(C#N)=C(\N)Sc1ccccc1N [U0126]
Du145 cells [1]; U0126 10 μM, 30 min, AM 5×10^-7 M
  inhibition of p-ERK induced by AM: completely inhibited

## adrenomedullin [AM]
Du145 cells [2]; 6 days
  stimulation of proliferation compared with untreated cells: 51±9.9%
Du145 cells [2]; 8 days
  stimulation of proliferation compared with untreated cells: 96±14.6%
LNCaP cells [3]
  growth rates of LNCaP cells versus control cells: slight decrease in the growth rates
Du145 cells [4]; AM 10^-7 M in bottom wells, 6 h
  increase of invasion compared with control: 92±22%
PC-3 cells [5]
  proliferative response of PC-3 cells: no proliferative responses
Du145 cells [1]; AM 5×10^-7 M, as early as 2 and 5 min, sustained up to 30 min
  levels of p-MEK and p-ERK: significantly increased
Du145 cells [1]; AM 5×10^-7 M, as early as 2 min, control levels up to 10 min
  cRaf phosphorylation: increased cRaf phosphorylation
Du145 cells [1]; AM stimulation
  level of p-Akt: not markedly increased
PC-3 cells [6]
  induction of invasion: 144±7.6%
Du145 cells [7]; AM 10^-7 M
  time at which cAMP increase reached a maximum: 5 min
Du145 cells [7]; AM 10^-7 M, IBMX 10^-4 M
  increase in cAMP content: 2.8±0.14 fold
Du145 cells [7]; AM 10^-9-10^-7 M, 5 min
  stimulation of cAMP formation with graded concentration: dose-dependent stimulation
Human LEC
  effect of AM on LECs: induces proliferation, migration and invasion of LECs
[8]; persisted during 48 h, LECs
  apoptosis (floating cells) after serum deprivation: prevented the apoptosis
[8]; serum deprived LECs
  apoptotic cell death of adherent culture: markedly suppressed
LNCaP cells [9]
  effect on LNCaP cells invasion: No effect

## bFGF: Growth factor used as positive control in invasion and migration assays
Du145 cells [4]; bFGF 10^-6 M, positive control
  effect on invasion relative to AM: similar
